Measurements from patent US20260062422A1 (Halda Therapeutics OpCo, Inc., priority 2022, published 2026).

Experiments:
[1] = system: T-Rex 293 cell line SC3 cells having increased expression of androgen receptor protein due to exposure to doxycycline; assay: Cellular growth inhibition, T-Rex 293 SC3 cells with doxycycline (androgen receptor induced), CellTiter-Glo; format: cell-based; conditions: 72 h, T-Rex 293 SC3 cells with 10 ng/mL doxycycline (increased androgen receptor expression)
Description: (§1) The following types of cells were prepared for this experiment: (i) a T-Rex 293 cell line having increased expression of androgen receptor protein due to exposure to doxycycline and (ii) a T-Rex 293 cell line lacking increased expression of androgen receptor protein. Ability of the test compounds to inhibit proliferation of the foregoing cell types was evaluated according to the procedures set forth below.
(§2) The doxycycline-inducible androgen receptor protein expressing cell line was established using the following protocol: T-Rex 293 cells were purchased from Invitrogen (Cat #R71007) and transfected using Lipofectamine 2000 with the wild-type androgen receptor protein sequence cloned into the pcDNA4/TO vector. Transfected cells were selected using 400 μg/mL Zeocin (Invitrogen Cat #R25001). Following selection, single clones were raised and maintained in Dulbecco's Modified Eagle Medium (DMEM) supplemented with 10% w/w Tetracycline-free fetal bovine serum (FBS) and 250 μg/mL Zeocin. Clones were analyzed for expression of androgen receptor protein in the presence and absence of 10 ng/mL doxycycline (Sigma Cat #D9891), and a single doxycycline-inducible clone (hereinafter “SC3”) was selected for use in downstream assays.
(§3) The SC3 cells were seeded on poly-D-lysine coated, black clear-bottom 384-well plates at 2500/well, in 25 μL Phenol Red Free Dulbecco's Modified Eagle Medium (DMEM) supplemented with 10% w/w charcoal-dextran treated fetal bovine serum (FBS) and 1% w/w pen-strep, with or without 10 ng/mL doxycycline. Pen-Strep is a commercially available mixture of penicillin G and streptomycin, which is used in mammalian cell culture media to prevent bacterial contamination. Phenol Red Free Dulbecco's Modified Eagle Medium (DMEM) supplemented with 10% w/w charcoal-dextran treated fetal bovine serum (FBS) and 1% w/w pen-strep, with or without 10 ng/mL doxycycline is herein referred to as Treatment Medium. Following seeding of cells in the plates, the plates were spun at 300×g for 30 seconds, then equilibrated to room temperature for 30 minutes, and then deposited in a humidified tissue culture incubator maintained at 37° C. with 5% CO2.
(§4) At 24 hours after seeding of the cells, dilutions of test compound were prepared in DMSO and dissolved in Treatment Medium, to achieve a final DMSO concentration of 0.5% w/w, thereby providing the Test Compound Solution. A 25 μL aliquot of the Test Compound Solution was added to cells in the well plates. An equal volume of a solution containing DMSO and Treatment Medium was used as a negative control. Following treatment of cells with Test Compound Solution or said equal volume of a solution containing DMSO and Treatment Medium, the plates were spun at 300×g for 30 seconds, and then left in an incubator for 72 hours. At the end of the treatment duration, cell viability was quantified with CellTiter-Glo 2.0 reagent (Promega Cat #G9243). For this purpose, plates were equilibrated to room temperature for 30 minutes, and then 25 μL of CellTiter-Glo 2.0 reagent was added to cells in the plate wells. Plates were then agitated on a shaker for two minutes at 500 rpm and subsequently incubated at room temperature for 10 minutes. Following incubation, the plates were spun at 3000×g for 30 seconds, then sealed with an optical adhesive cover, and luminescence readings were measured with an EnVision Plate Reader. Data was normalized using zero luminescence for baseline. A four-parameter non-linear regression curve fit was applied to dose-response data in GraphPad Prism data analysis software to determine the half-maximal growth inhibitory concentration (GI50) for each test compound.

[2] = system: T-Rex 293 cell line SC3 cells lacking increased expression of androgen receptor protein; assay: Cellular growth inhibition, T-Rex 293 SC3 cells without doxycycline, CellTiter-Glo; format: cell-based; conditions: 72 h, T-Rex 293 SC3 cells not exposed to doxycycline, CellTiter-Glo 2.0
Description: as §1, §2, §3, §4

[3] = system: T47D cells; assay: Cellular growth inhibition assay for T47D cells, CellTiter-Glo; format: cell-based, human; conditions: Homo sapiens, T47D, 72 h, 72 hours treatment, CellTiter-Glo 2.0 cell viability
Method in brief: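 Luminescence from CellTiter-Glo 2.0 after 72 h of compound exposure gives the viability signal. Cells grew in insulin-supplemented (0.2 units/mL) DMEM with 10% FBS and were treated one day after seeding at 0.5% DMSO. GI50 values come from four-parameter nonlinear regression.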

[4] = system: VCaP cells; assay: Cellular growth inhibition assay for VCaP cells, CellTiter-Glo; format: cell-based, human; conditions: Homo sapiens, VCaP, 72 h, 72 hours treatment, CellTiter-Glo 2.0
Method in brief: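 GI50 values come from four-parameter curve fits of luminescence data normalized to a zero baseline. Compound, in medium with 0.5% DMSO, was added one day after plating and left for 72 h before CellTiter-Glo 2.0 addition.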

| GI50 [3] [nM] | GI50 [4] [nM] | SMILES | GI50 [1] [nM] | GI50 [2] [nM] |
| --- | --- | --- | --- | --- |
| 500 to 1500 | 500 to 1500 | Cc1sc2c(c1C)C(c1ccc(Cl)cc1)=N[C@@H](CC(=O)NCCCOC1CCN(c3ncc(C(=O)N[C@H]4C(C)(C)[C@H](Oc5ccc(C#N)c(Cl)c5)C4(C)C)cn3)CC1)c1nnc(C)n1-2 [Compound I-20] | < 500 | 500 to 1500 |
| 500 to 1500 | < 500 | Cc1sc2c(c1C)C(c1ccc(Cl)cc1)=N[C@H](CC(=O)NCCCCOC1CCN(c3ncc(C(=O)N[C@H]4C(C)(C)[C@H](Oc5ccc(C#N)c(Cl)c5)C4(C)C)cn3)CC1)c1nnc(C)n1-2 [Compound I-21] | < 500 | > 3000 |
| < 500 | 500 to 1500 | Cc1sc2c(c1C)C(c1ccc(Cl)cc1)=N[C@@H](CC(=O)NCCN1CCN(CC3CCN(c4ncc(C(=O)N[C@H]5C(C)(C)[C@H](Oc6ccc(C#N)c(Cl)c6)C5(C)C)cn4)CC3)CC1)c1nnc(C)n1-2 [Compound I-35, N-((1r,3r)-3-(3-chloro-4-cyanophenoxy)-2,2,4,4-tetramethylcyclobutyl)-2-(4-((4-(2-(2-((S)-4-(4-chlorophenyl)-2,3,9-trimethyl-6H-thieno[3,2-f][1,2,4]triazolo[4,3-a][1,4]diazepin-6-yl)acetamido)ethyl)piperazin-1-yl)methyl)piperidin-1-yl)pyrimidine-5-carboxamide] | 500 to 1500 | 500 to 1500 |
| – | 1500 to 3000 | CCNC(=O)C[C@@H]1N=C(c2ccc(OCCCCCCOC3CCN(c4ncc(C(=O)N[C@H]5C(C)(C)[C@H](Oc6ccc(C#N)c(Cl)c6)C5(C)C)cn4)CC3)cc2)c2c(sc(C)c2C)-n2c(C)nnc21 [Compound I-63] | < 500 | 500 to 1500 |
| – | < 500 | CCNC(=O)C[C@@H]1N=C(c2ccc(OCCCCOC3CCN(c4ncc(C(=O)NC5C(C)(C)C(Oc6ccc(C#N)c(Cl)c6)C5(C)C)cn4)CC3)cc2)c2c(sc(C)c2C)-n2c(C)nnc21 (stereo partly drawn) [Compound I-64] | < 500 | < 500 |
| – | < 500 | CCNC(=O)C[C@@H]1N=C(c2ccc(OCCOCCOC3CCN(c4ncc(C(=O)N[C@H]5C(C)(C)[C@H](Oc6ccc(C#N)c(Cl)c6)C5(C)C)cn4)CC3)c(F)c2F)c2c(sc(C)c2C)-n2c(C)nnc21 [Compound I-74] | < 500 | 500 to 1500 |
| – | 500 to 1500 | CCNC(=O)C[C@@H]1N=C(c2ccc(OCCOCCOC3CCN(c4ncc(C(=O)N[C@H]5C(C)(C)[C@H](Oc6ccc(C#N)c(Cl)c6)C5(C)C)cn4)CC3)cc2F)c2c(sc(C)c2C)-n2c(C)nnc21 [Compound I-77] | < 500 | 500 to 1500 |
| – | 1500 to 3000 | CCNC(=O)C[C@@H]1N=C(c2ccc(OCCOCCOC3CCN(c4ncc(C(=O)N[C@H]5C(C)(C)[C@H](Oc6ccc(C#N)c(Cl)c6)C5(C)C)cn4)CC3)c(F)c2)c2c(sc(C)c2C)-n2c(C)nnc21 [Compound I-78] | < 500 | 1500 to 3000 |
| – | 1500 to 3000 | CCNC(=O)C[C@@H]1N=C(c2ccc(CCCCCOC3CCN(c4ncc(C(=O)N[C@H]5C(C)(C)[C@H](Oc6ccc(C#N)c(Cl)c6)C5(C)C)cn4)CC3)cc2)c2c(sc(C)c2C)-n2c(C)nnc21 [Compound I-89] | < 500 | 500 to 1500 |
| – | > 3000 | CCNC(=O)C[C@@H]1N=C(c2ccc(CCCCCCOC3CCN(c4ncc(C(=O)N[C@H]5C(C)(C)[C@H](Oc6ccc(C#N)c(Cl)c6)C5(C)C)cn4)CC3)cc2)c2c(sc(C)c2C)-n2c(C)nnc21 [Compound I-90] | < 500 | > 3000 |
| – | 500 to 1500 | CCNC(=O)C[C@@H]1N=C(c2ccc(CCCCOC3CCN(c4ncc(C(=O)N[C@H]5C(C)(C)[C@H](Oc6ccc(C#N)c(Cl)c6)C5(C)C)cn4)CC3)cc2)c2c(sc(C)c2C)-n2c(C)nnc21 [Compound I-91] | < 500 | 500 to 1500 |
| – | < 500 | CCNC(=O)C[C@@H]1N=C(c2ccc(CCCCCCCOC3CCN(c4ncc(C(=O)N[C@H]5C(C)(C)[C@H](Oc6ccc(C#N)c(Cl)c6)C5(C)C)cn4)CC3)cc2)c2c(sc(C)c2C)-n2c(C)nnc21 [Compound I-92] | < 500 | > 3000 |
| – | < 500 | Cc1sc2c(c1C)C(c1ccc(CC3CC(C4CCCN(c5ncc(C(=O)N[C@H]6C(C)(C)[C@H](Oc7ccc(C#N)c(Cl)c7)C6(C)C)cn5)C4)C3)cc1)=N[C@@H](C)c1nnc(C)n1-2 (stereo partly drawn) [Compound I-463] | < 500 | > 3000 |
| – | < 500 | Cc1sc2c(c1C)C(c1ccc(-n3cc(C4CCN(c5ncc(C(=O)N[C@H]6C(C)(C)[C@H](Oc7ccc(C#N)c(Cl)c7)C6(C)C)cn5)CC4)nn3)cc1)=N[C@@H](Cc1ncco1)c1nnc(C)n1-2 [Compound I-481] | < 500 | 500 to 1500 |
| – | < 500 | Cc1sc2c(c1C)C(c1ccc(-c3cc(C4CCN(c5ncc(C(=O)N[C@H]6C(C)(C)[C@H](Oc7ccc(C#N)c(Cl)c7)C6(C)C)cn5)CC4)no3)cc1)=NC(Cc1ncco1)c1nnc(C)n1-2 (stereo partly drawn) [Compound I-482] | < 500 | < 500 |
| – | < 500 | Cc1sc2c(c1C)C(c1ccc(-c3cn(C4CCN(c5ncc(C(=O)N[C@H]6C(C)(C)[C@H](Oc7ccc(C#N)c(Cl)c7)C6(C)C)cn5)CC4)nn3)cc1)=NC(Cc1ncco1)c1nnc(C)n1-2 (stereo partly drawn) [Compound I-483] | < 500 | < 500 |
| – | 500 to 1500 | Cc1sc2c(c1C)C(c1ccc(-c3cn(C4CCN(c5ncc(C(=O)N[C@H]6C(C)(C)[C@H](Oc7ccc(C#N)c(Cl)c7)C6(C)C)cn5)CC4)cn3)cc1)=N[C@@H](Cc1ncco1)c1nnc(C)n1-2 [Compound I-484] | < 500 | 500 to 1500 |
| – | < 500 | Cc1sc2c(c1C)C(c1ccc(N3CCCN(CCCNc4ncc(C(=O)N[C@H]5C(C)(C)[C@H](Oc6ccc(C#N)c(Cl)c6)C5(C)C)cn4)CC3)cc1)=N[C@@H](Cc1ncco1)c1nnc(C)n1-2 [Compound I-666] | < 500 | 1500 to 3000 |
| – | < 500 | Cc1sc2c(c1C)C(c1ccc(N3CCC(C)(CNc4ncc(C(=O)N[C@H]5C(C)(C)[C@H](Oc6ccc(C#N)c(Cl)c6)C5(C)C)cn4)CC3)cc1)=NC(Cc1ncco1)c1nnc(C)n1-2 (stereo partly drawn) [Compound I-667] | < 500 | < 500 |
| – | < 500 | Cc1sc2c(c1C)C(c1ccc(N3CCC4(CC3)CC(Nc3ncc(C(=O)N[C@H]5C(C)(C)[C@H](Oc6ccc(C#N)c(Cl)c6)C5(C)C)cn3)C4)cc1)=N[C@@H](Cc1ncco1)c1nnc(C)n1-2 [Compound I-668] | < 500 | < 500 |
| – | < 500 | Cc1sc2c(c1C)C(c1ccc(N3CCO[C@@H](CNc4ncc(C(=O)N[C@H]5C(C)(C)[C@H](Oc6ccc(C#N)c(Cl)c6)C5(C)C)cn4)C3)cc1)=NC(Cc1ncco1)c1nnc(C)n1-2 (stereo partly drawn) [Compound I-669] | < 500 | < 500 |
| – | < 500 | Cc1sc2c(c1C)C(c1ccc(N3CCN(c4ncc(C(=O)N[C@H]5C(C)(C)[C@H](Oc6ccc(C#N)c(Cl)c6)C5(C)C)cn4)CC(F)(F)C3)cc1)=NC(Cc1ncco1)c1nnc(C)n1-2 (stereo partly drawn) [Compound I-670] | < 500 | > 3000 |
